# Results published in publication PMC8929087, “Structural and Functional Characterization of a Novel Recombinant Antimicrobial Peptide from Hermetia illucens” (Current Issues in Molecular Biology, 2021).
# Where a SMILES comes first, the peptide text is derived from it. Bridges are numbered along the chain shown (N, C = ends).
# Assays:
# [1] = system: Staphylococcus epidermidis ATCC 12228; assay: Minimum inhibitory concentration (MIC) determination; format: cell-based; settings: serial dilution of peptide 248 to 0.5 μM, 24 h at 37 °C
# Protocol: (§1) The […] antimicrobial activity of the recombinant C-15867 peptide was evaluated against three different bacterial strains: E. coli BL21, Staphylococcus aureus NCTC 12493 and Staphylococcus. epidermidis ATCC 12228. The minimum inhibitory concentration (MIC) was determined as the lowest concentration showing no visible growth after 24 h of incubation at 37 °C.
# (§2) Figure 5 Determination of C-15867 minimum inhibitory concentration (MIC). All bacteria cells were grown in the presence of serial dilution of peptide from 248 µM to 0.56 µM and incubated at 37 °C for 24 h. The error bars on the graphs stand for the standard deviation from the mean of three experiments.
# (§3) The procedure was performed using medium as negative control and cells approximately 5 × 10^5 CFU/mL as positive control to monitor the normal growth of bacteria.
# E. coli BL21 = format: cell-based, Escherichia coli; settings: BL21, 24 h
# Protocol: as §1, §2, §3
# [2] = system: Staphylococcus aureus NCTC 12493; format: cell-based; settings: NCTC 12493, 24 h
# Protocol: as §1, §2, §3
# [3] = system: E. coli BL21 membrane permeability; assay: Crystal violet assay of membrane permeability; format: cell-based, Escherichia coli; settings: sub-mic concentration (9 µM) of peptide, LB broth, 37 °C, OD590 of supernatant
# Protocol: With C-15867 being a defensin-like AMP, we investigated the effect of the peptide, if any, on E. coli BL21 membrane permeability using the crystal violet assay. Bacterial cells were grown in the presence of a sub-mic concentration (9 µM) of the peptide and the uptake of crystal violet was monitored at different times of incubation.
# Figure 6 Effect of C-15867 on E. coli BL21 membrane permeability. The uptake of crystal violet was calculated in the presence of sub-mic concentration (9 µM) of the peptide.
# The alteration in membrane permeability was detected by crystal violet assay. Bacterial cells were grown in LB broth at 37 °C in the presence of […] peptide for 1 and 3 h. Subsequently, the cells were harvested at 9300× g for 5 min and then the cells were resuspended in 1× PBS containing 10 µg/mL of crystal violet. The cell suspension was incubated for 10 min at 37 °C and then centrifuged at 13,400× g for 15 min and the OD590 of the supernatant was measured at the spectrophotometer. Control samples were prepared similarly without treatment. The OD value of the crystal violet solution, which was originally used in the assay, was taken and it was considered as 100%. The percentage of crystal violet uptake of all the samples was quantified according to the following formula: OD value of the sample/OD value of the crystal violet solution 100×.
# E. coli Bl21 cells = assay: Scanning electron microscopy (SEM) of cell morphology; format: cell-based, Escherichia coli; settings: sub-mic concentration (9 µM) of peptide, 3 h incubation at 37 °C, compared with untreated cells
# Protocol: The effect of C-15867 on the morphology of E. coli BL21 cells was also assessed by SEM microscopy analyses. Bacterial cells were treated with a sub-mic concentration (9 µM) of the antimicrobial peptide and SEM analyses were carried out after 3 h of incubation in comparison with untreated cells.
# The cell wall and the cell surface were rough gradually forming pores with subsequent leakage of cytoplasmic material confirming the disrupting effect of the antimicrobial peptide on the bacterial membrane.
# Figure 7 Scanning electron microscopy of E. coli BL2_1 cells following 3 h treatment with a sub-mic concentration (9 µM) of the antimicrobial peptide C-15867 (d–f) in comparison with untreated cells (a–c). The scale bar was 2 µm in panel (a), 500nm in panel (b,c) and 1µm in panel (d–f).
# E. coli BL21 cells were grown in the absence and in the presence of native C15867 peptide at 37 °C for 3 h. Samples from each culture were fixed in 2.5% glutaraldehyde solution for 16 h. Following the incubation, the bacterial cells were washed with 0.1 M PBS (pH 7.2) and dehydrated in a series of ethanol solutions ranging from 30 to 100%, followed by three washes with 100% ethanol. E. coli cells were deposited onto glass substrate first sputter coated with a thin layer of Au-Pd alloy (Denton Vacuum Desk V Magnetron Sputtering) to allow subsequent morphological characterization using a FEI Nova NanoSEM 450.
smiles,measurement,setting,value
"CC[C@H](C)[C@@H]1NC(=O)[C@@H]2CSSC[C@@H](C(=O)N[C@@H](CCCNC(=N)N)C(=O)O)NC(=O)[C@H](C(C)C)NC(=O)[C@@H]3CSSC[C@H](NC(=O)[C@@H]4CCCN4C(=O)[C@H](C)NC(=O)[C@H](CCCNC(=N)N)NC(=O)CNC(=O)[C@H](Cc4ccccc4)NC(=O)[C@H](Cc4ccccc4)NC(=O)[C@@H]4CCCN4C(=O)[C@H](CCCCN)NC(=O)[C@H](CC(C)C)NC(=O)[C@H](CC(C)C)NC(=O)[C@H](CC(=O)O)NC(=O)[C@@H](NC(=O)[C@@H](NC(=O)[C@@H](N)C(C)C)[C@@H](C)O)CSSC[C@H](NC(=O)[C@H](Cc4ccccc4)NC(=O)CNC(=O)[C@H]([C@@H](C)O)NC(=O)[C@H](CCCNC(=N)N)NC(=O)[C@H](CCCCN)NC(=O)[C@H](CCCCN)NC(=O)[C@H](Cc4ccccc4)NC(=O)[C@H](CCCNC(=N)N)NC(=O)[C@H](CC(C)C)NC1=O)C(=O)N[C@@H](CO)C(=O)N[C@@H](CCCNC(=N)N)C(=O)N[C@@H](CCC(N)=O)C(=O)N[C@@H](CC(N)=O)C(=O)N[C@@H](C(C)C)C(=O)N3)C(=O)N[C@@H](CCSC)C(=O)N[C@@H](CCSC)C(=O)N[C@@H](Cc1c[nH]cn1)C(=O)N2 [C-15867] (H-VTCDLLKPFFGRAPCMMHCILRFKKRTGFCSRQNVCVCR-OH; disulfide 3-30, 15-36, 19-38; N-terminus and C-terminus assumed)",antimicrobial effect (in words),[1],strong antimicrobial effect
same,minimum inhibitory concentration (MIC),E. coli BL21,36 µM
same,minimum inhibitory concentration (MIC),[2],36 µM
same,increase in the uptake of crystal violet,[3]; 1 h of treatment,22%
same,increase in the uptake of crystal violet,[3]; 3 h of treatment,34%
same,cell morphology by SEM (in words),E. coli Bl21 cells,severe morphological changes
